Results taken from patent US9359298B2, “Cajanine structure analogous compound, preparation method and use” (INSTITUTE OF MEDICINAL BIOTECHNOLOGY, CHINESE ACADEMY OF …, priority 2011, dated 2016).
≈ marks a conversion by molar mass, not a printed value. Like-named read-outs stand apart in the source and are kept apart here.

Tests used:
Assay type in all cases: cell-based
[1] = system: HIV-1 III B virus; test: Anti-HIV activity assay (P24 antigen in MT-4 cells); conditions: for IC50: Human immunodeficiency virus 1, MT4, 96 h, MT-4 cells, HIV-1 III B 100TCID50, 96 h, P24 antigen, read-out: HIV IC50; for anti-HIV viral activity: statement in words
[2] = system: Influenza A virus (hanfang359/95); test: Determination of anti-influenza virus activity (CPE in MDCK cells); conditions: for IC50: Influenza A virus, MDCK, 36 h; for anti-influenza virus activities compared with the lead compound cajanine: statement in words
[3] = system: PC12 cells; test: Neuroprotective activity assay, serum-deprived injury to PC12 cells (MTT); conditions: for viability at 10 µM: Rattus norvegicus, PC-12, 48 h, 10 μM test compound, 48 h, Control 100.0 ± 9.2, Model 69.3 ± 4.1, read-out: serum-deprived (surviving PC12 cells, MTT 570 nm)
In short: (§1)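 PC12 cells on poly-lysine plated 24 h, then injured 48 h by serum-free DMEM or 4 μM rotenone with 10 μM test compound present during injury. Viability read by MTT (4 h), absorbance 570 nm.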

[4] = system: PC12 cells; test: Neuroprotective activity assay, rotenone injury to PC12 cells (MTT); conditions: for viability at 10 µM: Rattus norvegicus, PC-12, 48 h, 10 μM test compound, 4 μM rotenone, 48 h, Control 100.0 ± 8.9, Model 73.2 ± 7.8, read-out: rotenone (surviving PC12 cells, MTT 570 nm)
In short: as §1

[5] = system: HCV; test: Anti-hepatitis C virus (HCV) activity assay (HCV RNA in Huh7.5 cells); conditions: for EC50: Hepatitis C virus, Huh7.5, 72 h, Huh7.5 cells, 72 h, HCV RNA by RT-PCR, Reed-Muench, read-out: HCV EC50; for anti-HCV viral activity: statement in words
Experimental: Inoculate Huh7.5 cells into 96-well plates to a density of 3×10^4 cells/cm^2, culture for 24h, infect the cells with 45 IU/cell HCV supernatant, meanwhile, add drug solutions or solvent control for treatment.

[6] = system: Coxsackie virus B6; test: Coxsackie virus activity assay (CPE in Vero cells); conditions: Vero
[7] = read-out: COX-B6 IC50, Vero cells, about 100TCID50, CPE, Reed-Muench

Compound	IC50 [1]	IC50 [2]	anti-influenza virus activities compared with the lead compound cajanine [2]	viability at 10 µM [3]	viability at 10 µM [4]	EC50 [5]	IC50 [6, 7]	protective effect on serum-deprived injury to PC12 cells ([3]; statement in words)	protective effect on rotenone injury to PC12 cells ([4]; statement in words)	IC50 ([6]; read-out: COX-B6 IC50)	anti-HIV viral activity [1]	anti-HCV viral activity [5]
COc1cc(/C=C/c2ccccn2)cc(O)c1CC=C(C)C [Compound 10x, 2-isopentenyl-3-methoxy-5-[(E)-2-(pyrid-2-yl)ethenyl]phenol]	1.09 µg/mL (≈ 3.69 µM)	0.09 µg/mL (≈ 0.305 µM)	significantly stronger than the lead compound cajanine	78.9 ± 4.6%	78.9 ± 5.4%	0.93 µg/mL (≈ 3.15 µM)	0.42 µg/mL (≈ 1.42 µM)					
COc1cc(/C=C/c2cc(OC)c(OC)c(OC)c2)cc(O)c1CC=C(C)C [Compound 10y, 2-isopentenyl-3-methoxy-5-[(E)-3,4,5-trimethoxystyryl]phenol]	1.66 µg/mL (≈ 4.32 µM)	0.13 µg/mL (≈ 0.338 µM)	significantly stronger than the lead compound cajanine	89.1 ± 5.4%	89.5 ± 2.5%	1.39 µg/mL (≈ 3.62 µM)	2.58 µg/mL (≈ 6.71 µM)					
COc1ccnc(/C=C/c2cc(O)c(CC=C(C)C)c(OC)c2)c1 [Compound 10z, 2-isopentenyl-3-methoxy-5-[(E)-2-(4-methoxypyrid-2-yl)ethenyl]phenol]	2.83 µg/mL (≈ 8.7 µM)	0.32 µg/mL (≈ 0.983 µM)	significantly stronger than the lead compound cajanine	84.6 ± 3.9%	87 ± 5.1%	1.19 µg/mL (≈ 3.66 µM)	0.84 µg/mL (≈ 2.58 µM)					
COC(=O)c1c(O)c(CC=C(C)C)c(OC)c(Cl)c1/C=C/c1ccccc1 [Compound 12, methyl 2-hydroxy-3-isopentenyl-4-methoxy-5-chloro-6-[(E)-styryl]benzoate]	8.17 µg/mL (≈ 21.1 µM)	6.17 µg/mL (≈ 15.9 µM)		60.2 ± 5.1%	74.5 ± 3.2%	6.87 µg/mL (≈ 17.8 µM)	> 6.17 µg/mL					
COC(=O)c1c(/C=C/c2ccccc2)cc(OC)c(CC=C(C)C)c1OC [Compound 14, methyl 2,4-dimethoxy-3-isopentenyl-6-[(E)-styryl]benzoate]	1.32 µg/mL (≈ 3.6 µM)	> 2.06 µg/mL		69.7 ± 5.6%	73.7 ± 8.5%	1.77 µg/mL (≈ 4.83 µM)	1.6 µg/mL (≈ 4.37 µM)					
COc1cc(/C=C/c2ccccc2)c(C(=O)O)c(OC)c1CC=C(C)C [Compound 15, 2-methoxy-3-isopentenyl-4-methoxy-6-[(E)-styryl]benzoic acid]	1.43 µg/mL (≈ 4.06 µM)	> 0.23 µg/mL		74.1 ± 2.5%	83.1 ± 5.7%	0.83 µg/mL (≈ 2.36 µM)	> 2.06 µg/mL					
COC(=O)c1c(O)cc(OC)c(CC=C(C)C)c1/C=C/c1ccccc1 [Compound 18, methyl 2-hydroxy-4-methoxy-5-isopentenyl-6-[(E)-styryl]benzoate]	0.34 µg/mL (≈ 0.965 µM)	> 18.5 µg/mL		77.8 ± 6.3%	74.9 ± 2.9%	8.51 µg/mL (≈ 24.1 µM)	> 6.17 µg/mL					
COc1cc(/C=C/Cc2ccccc2)cc(OC)c1 [Compound 21a, 1,3-dimethoxy-5-[(E)-3-phenylpropen-1-yl]benzene]	1.1 µg/mL (≈ 4.33 µM)	1.32 µg/mL (≈ 5.19 µM)		81.2 ± 2.4%	80.5 ± 2.3%	2.83 µg/mL (≈ 11.1 µM)	4.23 µg/mL (≈ 16.6 µM)					
Oc1cc(O)cc(/C=C/Cc2ccccc2)c1 [Compound 21b, 1,3-dihydroxy-5-[(E)-3-phenylpropen-1-yl]benzene]	0.88 µg/mL (≈ 3.89 µM)	2.54 µg/mL (≈ 11.2 µM)		74.6 ± 3.5%	78.9 ± 6.8%	1.47 µg/mL (≈ 6.5 µM)	3.26 µg/mL (≈ 14.4 µM)					
COc1cc(/C=C/c2ccc(OC)c(O)c2)cc(OC)c1 [Compound 21d, 1,3-dimethoxy-5-[(E)-3-hydroxy-4-methoxy-styryl]benzene]	0.63 µg/mL (≈ 2.2 µM)	5.42 µg/mL (≈ 18.9 µM)		88.7 ± 6.3%	89.8 ± 2.8%	3.37 µg/mL (≈ 11.8 µM)		the strongest activities	the strongest activities	7.98 µg/mL (≈ 27.9 µM)		
Oc1cc(O)cc(/C=C/c2ccc(O)c(O)c2)c1 [Compound 21e, 1,3-dihydroxy-5-[(E)-3,4-dihydroxystyryl]benzene]	6.33 µg/mL (≈ 25.9 µM)	2.38 µg/mL (≈ 9.74 µM)		85.6 ± 4.2%	87.4 ± 2.5%	2.06 µg/mL (≈ 8.43 µM)	4.86 µg/mL (≈ 19.9 µM)					
COc1cc(/C=C(\C)c2cc(O)cc(O)c2)cc(OC)c1 [Compound 21g, 1,3-dimethoxy-5-[(E)-2-(3,5-dihydroxyphenyl)propen-1-yl]benzene]	1.27 µg/mL (≈ 4.44 µM)	4.25 µg/mL (≈ 14.8 µM)		80.2 ± 1.5%	82.3 ± 3.1%	0.9 µg/mL (≈ 3.14 µM)	6.84 µg/mL (≈ 23.9 µM)					
C/C(=C\c1cc(O)cc(O)c1)c1cc(O)cc(O)c1 [Compound 21h, 1,3-dihydroxy-5-[(E)-2-(3,5-dihydroxyphenyl)propen-1-yl]benzene]	5.28 µg/mL (≈ 20.4 µM)	5.84 µg/mL (≈ 22.6 µM)		74.8 ± 2.6%	71.2 ± 3.8%	4.46 µg/mL (≈ 17.3 µM)	6.98 µg/mL (≈ 27 µM)					
COc1cc(/C=C/c2cc(O)c(O)c(O)c2)cc(OC)c1 [Compound 21j, 1,3-dimethoxy-5-[(E)-3,4,5-trihydroxystyryl]benzene]	1.04 µg/mL (≈ 3.61 µM)	0.98 µg/mL (≈ 3.4 µM)		69.3 ± 2.5%	75.6 ± 4.6%	1.33 µg/mL (≈ 4.61 µM)	1.34 µg/mL (≈ 4.65 µM)					
Oc1cc(O)cc(/C=C/c2cc(O)c(O)c(O)c2)c1 [Compound 21k, 1,3-dihydroxy-5-[(E)-3,4,5-trihydroxystyryl]benzene]	10.3 µg/mL (≈ 39.7 µM)	0.54 µg/mL (≈ 2.07 µM)	significantly stronger than the lead compound cajanine	74.5 ± 5.8%	71.3 ± 8%	8.36 µg/mL (≈ 32.1 µM)	0.78 µg/mL (≈ 3 µM)					
COc1cc(/C=C/c2ccccc2)c(C(=O)n2ccnc2)c(O)c1CC=C(C)C [Compound 22, (E)-(2-hydroxy-3-isopentenyl-4-methoxy-6-styrylphenyl)(1H-imidazol-1-yl)ketone]	0.35 µg/mL (≈ 0.901 µM)	1.25 µg/mL (≈ 3.22 µM)		87.8 ± 2.9%	85.6 ± 1.6%	0.68 µg/mL (≈ 1.75 µM)	2.37 µg/mL (≈ 6.1 µM)					
COc1cc(/C=C/c2ccccc2)c(C(=O)NC(N)=O)c(O)c1CC=C(C)C [Compound 23a, N-aminoformyl-2-hydroxy-3-isopentenyl-4-methoxy-6-[(E)-styryl]benzamide]	0.74 µg/mL (≈ 1.95 µM)	0.09 µg/mL (≈ 0.237 µM)	significantly stronger than the lead compound cajanine	87.9 ± 5.8%	85.6 ± 8.7%	0.66 µg/mL (≈ 1.73 µM)	0.32 µg/mL (≈ 0.841 µM)				stronger anti-HIV, HCV viral activities	stronger anti-HIV, HCV viral activities
COc1cc(/C=C/c2ccccc2)c(C(=O)NC(=N)N)c(O)c1CC=C(C)C [Compound 23b, N-amidino-2-hydroxy-3-isopentenyl-4-methoxy-6-[(E)-styryl]benzamide]	3.9 µg/mL (≈ 10.3 µM)	0.13 µg/mL (≈ 0.343 µM)	significantly stronger than the lead compound cajanine	79.8 ± 4.6%	81.3 ± 5%	0.53 µg/mL (≈ 1.4 µM)	0.24 µg/mL (≈ 0.632 µM)				stronger anti-HIV, HCV viral activities	stronger anti-HIV, HCV viral activities
